# Assay results published in patent publication US20230406912A1, “HUMANISED ANTIBODIES AGAINST PATHOGENIC FUNGI” (priority 2020, published 2023).
# What was measured:
# [1] = system: C. auris; test: EUCAST antifungal MIC assay, drug alone and combined with hmAb 2G8; assay type: cell-based; settings: drug alone
# Experimental: To evaluate the susceptibility of C. auris to caspofungin, amphotericin B and their combination with hmAb 2G8, we followed the EUCAST antifungal MIC method (EUCAST E.DEF. 7.3). Antifungal drugs were purchased from Sigma-Aldrich.
# The caspofungin and amphotericin B range concentrations analysed were reported in EUCAST document. Those concentrations were tested alone and in combination with 0.25, 2.5, 25 and 250 μg/ml of humanised antibody.
# The plates microdilution and the yeast inoculum were prepared as reported in EUCAST document. The wells with 100 μl of 2X final antifungal drugs concentration in RPMI 2% G medium were inoculated with 100 μl (1-5×10^5 CFU/ml) of yeast suspension of C. auris. The monoclonal antibody was added to the samples of yeast suspension to test the combination drug-antibody. The plates were incubated at 37° C. for 24 and 48 hours and read after incubation at 405 nm. The assays were performed in triplicate.
# As reported in EUCAST, echinocandins' MIC50 is the lowest drug concentration giving inhibition of≥50% of that of the drug-free control (dotted line). For amphotericin B, MIC50 is the same as for echinocandins while MIC90 is considered as the lowest concentration giving a growth inhibition of≥90% of that of the drug-free control (dotted bold line). […] At 48 hours (D), amphotericin B alone has its MIC50 and 90 at 1 μg/ml.
# [2] = system: C. auris; test: Time-kill curve, drug alone and combined with hmAb 2G8; assay type: cell-based
# From the text: To support and deepen the data coming from MIC assays, a time-kill curve was elaborated to evaluate how the hmAb 2G8 combined with caspofungin or amphotericin B could improve their basal activity on C. auris.
# [3] = system: C. auris; settings: different C. auris strains, literature; cited from earlier work
smiles,measurement,setting,value
C[C@@H]1[C@H](O)[C@@H](C)/C=C/C=C/C=C/C=C/C=C/C=C/C=C/[C@H](O[C@@H]2O[C@H](C)[C@@H](O)[C@H](N)[C@@H]2O)C[C@@H]2O[C@](O)(C[C@@H](O)C[C@@H](O)[C@H](O)CC[C@@H](O)C[C@@H](O)CC(=O)O[C@H]1C)C[C@H](O)[C@H]2C(=O)O [amphotericin B],MIC50,[1]; 24 hours,0.5 µg/mL
same,MIC90,[1]; 24 hours,0.5 µg/mL
same,MIC50,[1]; 48 hours,1 µg/mL
same,MIC90,[1]; 48 hours,1 µg/mL
same,log growth decrease (time-kill curve),"[2]; AMB 0.03125 μg/ml, 0 h",0.01 Log
same,log growth decrease (time-kill curve),"[2]; AMB 0.03125 μg/ml, 2 h",0.05 Log
same,log growth decrease (time-kill curve),"[2]; AMB 0.03125 μg/ml, 4 h",−0.19 Log
same,log growth decrease (time-kill curve),"[2]; AMB 0.03125 μg/ml, 6 h",−0.62 Log
same,log growth decrease (time-kill curve),"[2]; AMB 0.03125 μg/ml, 8 h",−1.04 Log
same,log growth decrease (time-kill curve),"[2]; AMB 0.03125 μg/ml, 24 h",−2.65 Log
same,log growth decrease (time-kill curve),"[2]; AMB 0.03125 μg/ml, 48 h",−2.85 Log
same,log growth decrease (time-kill curve),"[2]; AMB 0.0625 μg/ml, 0 h",0.00 Log
same,log growth decrease (time-kill curve),"[2]; AMB 0.0625 μg/ml, 2 h",0.07 Log
same,log growth decrease (time-kill curve),"[2]; AMB 0.0625 μg/ml, 4 h",−0.14 Log
same,log growth decrease (time-kill curve),"[2]; AMB 0.0625 μg/ml, 6 h",−0.59 Log
same,log growth decrease (time-kill curve),"[2]; AMB 0.0625 μg/ml, 8 h",−0.97 Log
same,log growth decrease (time-kill curve),"[2]; AMB 0.0625 μg/ml, 24 h",−2.59 Log
same,log growth decrease (time-kill curve),"[2]; AMB 0.0625 μg/ml, 48 h",−2.57 Log
same,log growth decrease (time-kill curve),"[2]; AMB 0.125 μg/ml, 0 h",0.01 Log
same,log growth decrease (time-kill curve),"[2]; AMB 0.125 μg/ml, 2 h",0.11 Log
same,log growth decrease (time-kill curve),"[2]; AMB 0.125 μg/ml, 4 h",−0.07 Log
same,log growth decrease (time-kill curve),"[2]; AMB 0.125 μg/ml, 6 h",−0.42 Log
same,log growth decrease (time-kill curve),"[2]; AMB 0.125 μg/ml, 8 h",−0.80 Log
same,log growth decrease (time-kill curve),"[2]; AMB 0.125 μg/ml, 24 h",−2.28 Log
same,log growth decrease (time-kill curve),"[2]; AMB 0.125 μg/ml, 48 h",−2.44 Log
same,log growth decrease (time-kill curve),"[2]; AMB 0.25 μg/ml, 0 h",0.07 Log
same,log growth decrease (time-kill curve),"[2]; AMB 0.25 μg/ml, 2 h",0.10 Log
same,log growth decrease (time-kill curve),"[2]; AMB 0.25 μg/ml, 4 h",0.02 Log
same,log growth decrease (time-kill curve),"[2]; AMB 0.25 μg/ml, 6 h",−0.02 Log
same,log growth decrease (time-kill curve),"[2]; AMB 0.25 μg/ml, 8 h",0.02 Log
same,log growth decrease (time-kill curve),"[2]; AMB 0.25 μg/ml, 24 h",0.19 Log
same,log growth decrease (time-kill curve),"[2]; AMB 0.25 μg/ml, 48 h",−2.13 Log
same,log growth decrease (time-kill curve),"[2]; AMB 0.5 μg/ml, 0 h",0.05 Log
same,log growth decrease (time-kill curve),"[2]; AMB 0.5 μg/ml, 2 h",0.21 Log
same,log growth decrease (time-kill curve),"[2]; AMB 0.5 μg/ml, 4 h",0.41 Log
same,log growth decrease (time-kill curve),"[2]; AMB 0.5 μg/ml, 6 h",0.86 Log
same,log growth decrease (time-kill curve),"[2]; AMB 0.5 μg/ml, 8 h",1.95 Log
same,log growth decrease (time-kill curve),"[2]; AMB 0.5 μg/ml, 24 h",≥3 Log
same,log growth decrease (time-kill curve),"[2]; AMB 0.5 μg/ml, 48 h",≥3 Log
same,log growth decrease (time-kill curve),"[2]; AMB 1 μg/ml, 0 h",0.05 Log
same,log growth decrease (time-kill curve),"[2]; AMB 1 μg/ml, 2 h",1.77 Log
same,log growth decrease (time-kill curve),"[2]; AMB 1 μg/ml, 4 h",≥3 Log
same,log growth decrease (time-kill curve),"[2]; AMB 1 μg/ml, 6 h",≥3 Log
same,log growth decrease (time-kill curve),"[2]; AMB 1 μg/ml, 8 h",≥3 Log
same,log growth decrease (time-kill curve),"[2]; AMB 1 μg/ml, 24 h",≥3 Log
same,log growth decrease (time-kill curve),"[2]; AMB 1 μg/ml, 48 h",≥3 Log
same,log growth decrease (time-kill curve),"[2]; AMB 2 μg/ml, 0 h",0.05 Log
same,log growth decrease (time-kill curve),"[2]; AMB 2 μg/ml, 2 h",≥3 Log
same,log growth decrease (time-kill curve),"[2]; AMB 2 μg/ml, 4 h",≥3 Log
same,log growth decrease (time-kill curve),"[2]; AMB 2 μg/ml, 6 h",≥3 Log
same,log growth decrease (time-kill curve),"[2]; AMB 2 μg/ml, 8 h",≥3 Log
same,log growth decrease (time-kill curve),"[2]; AMB 2 μg/ml, 24 h",≥3 Log
same,log growth decrease (time-kill curve),"[2]; AMB 2 μg/ml, 48 h",≥3 Log
same,log growth decrease (time-kill curve),"[2]; AMB 4 μg/ml, 0 h",0.06 Log
same,log growth decrease (time-kill curve),"[2]; AMB 4 μg/ml, 2 h",≥3 Log
same,log growth decrease (time-kill curve),"[2]; AMB 4 μg/ml, 4 h",≥3 Log
same,log growth decrease (time-kill curve),"[2]; AMB 4 μg/ml, 6 h",≥3 Log
same,log growth decrease (time-kill curve),"[2]; AMB 4 μg/ml, 8 h",≥3 Log
same,log growth decrease (time-kill curve),"[2]; AMB 4 μg/ml, 24 h",≥3 Log
same,log growth decrease (time-kill curve),"[2]; AMB 4 μg/ml, 48 h",≥3 Log
same,time at which fungicidal activity is obtained,"[2]; time-kill curve, as efficiency starts decreasing",24 h
same,MIC,[3],≥ 2 µg/mL
